What all share (test): growth of human tumour cells (NCI), 48 h
Assay [1] deals with NCI-H23 lung.
Assay [2] concerns COLO 205 colon.
Assay [3] concerns HL-60(TB) leukemia.
Assay [4] concerns CCRF-CEM leukemia.
For assay [5], the system named is EKVX NSCLC.
Assay [6] deals with HOP-92 NSCLC.
The test system of assay [7] is SF-295 CNS.
The subject of assay [8] is MCF7 breast.
Assay [9] has as its system NCI/ADR-RES ovarian.

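Dose response: 5 concentrations. Exposure: 48 h. Format: 96-well plates. Endpoint: linear interpolation; highest concentration if not reached. GI50 = concentration required for 50% inhibition of growth. TGI denotes the concentration required for complete inhibition of growth.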 Bounds are passed on as bounds.

On to `O=c1c(-c2ccccc2)c2oc(c1-c1ccccc1)CS(=O)(=O)CCC2`, for which the TGI is 38.9 µM in assay [1]; 42.1 µM in assay [2]; greater than 100 µM in assay [3]; greater than 100 µM in [4]; greater than 100 µM in [5]; greater than 100 µM in assay [6]. The molecule also gave a TGI in assay [7] greater than 100 µM.

Turning to `COc1ccc(/C=N/N=C(\N)NO)c(Cl)c1O`, the TGI in assay [1] is 63.7 µM; in assay [2], greater than 100 µM; in assay [4], greater than 100 µM; in [5] it was greater than 100 µM; in [6], greater than 100 µM; in assay [7], 22.4 µM.

`N.N.N.N.O=NN1CCCCCC1(P(=O)([O-])[O-])P(=O)([O-])[O-].[Pt+4].[Pt+4]`: the GI50 in assay [1], in [2], in assay [3], in [4], in [5] and in assay [6] was greater than 100 µM throughout. The GI50 in [7] was greater than 100 µM. Moreover, the TGI in [1], in assay [2], in [3], in assay [4], in assay [5] and in assay [6] was greater than 100 µM throughout. The same molecule yielded a TGI in assay [7] greater than 100 µM.

Turning to `CCOC(=O)C1(C#N)C(c2ccccc2)CC(O)(c2ccc([N+](=O)[O-])cc2)C(C(=O)c2ccc([N+](=O)[O-])cc2)C1c1ccccc1` (stereo unspecified), the TGI in assay [1], in assay [2], in [3], in assay [4], in assay [5] and in assay [7] was greater than 100 µM in each case.

With `CC(C)N(C(=O)C1(C)CC1)C(C)C`, the TGI in [1], in assay [2], in assay [3], in assay [4], in assay [5] and in assay [6] was greater than 100 µM in each case. This molecule also came in with a TGI in [7] greater than 100 µM.

`CC(=O)[O-].CC(=O)[O-].O=C(N/N=C/c1cc(Cl)cc(Cl)c1O)c1ccncc1.[Ni+2]`: the TGI in assay [1] is greater than 100 µM; in [2] it was greater than 100 µM; in assay [3], 45.3 µM; in [4], greater than 100 µM; in assay [5], greater than 100 µM; in assay [6], 76.9 µM. The TGI in [7] amounted to 67.2 µM. The GI50 in assay [6] is 17.1 µM.

On to `Cc1ccc(-n2c3nc(=O)n(C)c(=O)c-3nc3ccccc32)cc1`, for which the TGI in [1] was determined as 11.8 µM; in assay [2], 14.8 µM; in [3], 35.8 µM; in assay [4], 49.4 µM; in assay [5] it was 38.4 µM; in assay [7] it was 46.5 µM.

With `CCN(CC)c1ccc(C2CC(c3cc(OC)c(OC)c(OC)c3)=NN2)cc1` (stereo unspecified), the GI50 in assay [1] is 2.69 µM; in assay [3] it was 0.59 µM; in [8] it was 0.227 µM; in assay [4], 0.277 µM; in assay [9], 0.44 µM; in [5], 0.305 µM. Moreover, the GI50 in assay [6] is 1.55 µM; in [7], 0.188 µM. For the same molecule, the TGI in assay [1] is greater than 100 µM; in [3], 2.7 µM; in assay [4], 1.16 µM; in assay [9], greater than 100 µM; in assay [6], 31.1 µM; in [7], 5.19 µM.

Turning to `O=C1OC(c2ccccc2)=N/C1=C\c1ccc2ccccc2c1`, the TGI in assay [1], in assay [2], in assay [4], in [5] and in assay [6] was greater than 100 µM throughout.

In the case of `CCCCCCCCCCCCCCCCOCC(CN(C)CCN(C)C)OCCCCCCCCCCCCCCCC` (stereo unspecified), the TGI in [1], in [2], in [3], in assay [4], in assay [5] and in assay [6] was greater than 100 µM each time. For the same molecule, in assay [7], the TGI was greater than 100 µM.

On to `O=c1cc(-c2ccccc2)oc2cc(OCC(O)COc3ccc4c(=O)cc(-c5ccccc5)oc4c3)ccc12`, for which the TGI in assay [1] is greater than 100 µM; in assay [3] it was greater than 100 µM; in assay [4], greater than 100 µM; in assay [5], greater than 100 µM; in assay [6], 95.5 µM; in assay [7], greater than 100 µM.

Take `N#CC(/C(=N\NC(=O)c1ccncc1)C(=O)Nc1ccc([N+](=O)[O-])cc1[N+](=O)[O-])c1nc(-c2ccc(Br)cc2)cs1` (stereo unspecified): the TGI in assay [2], in [3], in [4], in assay [5] and in assay [7] was greater than 100 µM each time.

`C=CCCCn1ccc2ccccc21`: the TGI in assay [1], in assay [2], in [3], in assay [4], in assay [5] and in assay [6] was greater than 100 µM in each case. Moreover, in assay [7], the TGI was greater than 100 µM.

As to `CN(C)CCCNC(=O)c1ccc2oc3cc4ccccc4c(=O)n3c2c1`, the GI50 is 17.9 µM in assay [1]; 29.4 µM in assay [2]; 29.8 µM in [3]; greater than 50 µM in [8]; greater than 50 µM in assay [9]; greater than 50 µM in [5]. Further, the GI50 is greater than 50 µM in [6] and 33.7 µM in [7]. In addition, the TGI in assay [1], in [2], in [3], in [8], in [9] and in [5] was greater than 50 µM in each case. In addition, the TGI in assay [6] and in [7] was greater than 50 µM each time.

As to `Nc1nc(Cl)cc(NCCCCCNc2cc(Cl)nc(N)n2)n1`, the TGI in assay [1], in assay [2], in [3], in [4], in assay [5] and in assay [6] was greater than 100 µM in each case. The same molecule had a TGI in [7] greater than 100 µM.

Consider `COc1cc(OC)c2ssc3c(OC)cc(OC)c4ssc1c2-c43`, for which the TGI in [1], in assay [2], in assay [4], in [5] and in assay [7] was greater than 100 µM in each case.
